From patent publication US8846711B2, “Heterocyclic acrylamides and their use as pharmaceuticals” (Fab Pharma S.A.S., priority 2009, dated 2014)
pIC50: −log10 of the molar value. In brackets after ≈: the same amount, converted by molar mass.

Assays:
S. aureus CIP 54.146 = experiment: MIC determination using broth microdilution method; type: cell-based; conditions: Staphylococcus aureus, CIP54 / MSSA, read-out: MIC (μg/ml) S. aureus CIP 54.146
Description: The compounds of the invention are useful antibacterial agents having a selective spectrum of activity in vitro against bacterial strains relying on FabI and related targets. […] The activity is presented as Minimum Inhibitory Concentration (MIC) expressed in μg/ml and was determined using broth microdilution or Agar dilution methods.
(§1) Antibacterial activity was determined on strains from Mutabilis internal collection.
This protocol is compliant with Clinical Laboratory Standards Institute (CLSI) methodology as described in M7-A7 document of the CLSI. The compound to be tested is diluted according to a geometric series of reason 2 in pure DMSO. Dilutions are transferred in sterile polystyrene microplates, followed by mid-log phase bacteria in cation-adjusted Muller-Hinton broth (ca-MHB, Fluka, Reference 90922) with a final inoculum of 5×10^5 cfu/ml. Microplates are incubated overnight at 35° C. MIC is defined as the lowest concentration of antimicrobial agent that completely prevents visible bacterial growth. All manipulations, but compound handling (in pure DMSO), are performed under sterile conditions. The final concentration of DMSO in the plates is 2%.

[1] = target: recombinant S. aureus FabI enzyme (Staphylococcus aureus (strain MRSA252), UniProt Q6GI75); experiment: FabI inhibition, fluorescence based assay; type: biochemical; conditions: in vitro
Description: Compound inhibitory activity of FabI enzyme is measured in vitro by the […] determination using a fluorescence based assay.
The protein FabI from S. aureus is prepared and purified using standard methods for recombinant protein expression after cloning of the gene in a prokaryotic expression vector.
The biochemical activity of the FabI enzyme is assessed using the following method.
The assay buffer “AB” contained 50 mM ADA (N-(2-acetamido)iminodiacetic acid monosodium salt) pH 6.5, 1 mM dithiothreitol, 0.006% Triton-X100 and 50 mM NaCl.
The following components are added in a white polystyrene Costar plate (Ref 3912) up to a final volume of 55.5 μL: 1.5 μL DMSO or inhibitor dissolved in DMSO and 54 μL of a FabI/NADPH/NADP+ mixture in AB. After 60 min of pre-incubation at room temperature, the reaction is started by addition of 5 μL of trans-2-octenoyl N-acetylcysteamine thioester (t-o-NAC) to a final volume of 60.5 μL. This reaction mixture is then composed of 2 nM FabI, 40 μM NADPH (Sigma, N7505), 10 μM NADP+ (Sigma, N5755), 100 μM t-O-NAC and compound at defined concentration. Fluorescence intensity of NADPH (λex=360 nm, […]) is measured immediately after t-O-NAC addition (T0), and approximately 50 min later (T50) by a Fluostar Optima (BMG) so as to achieve ±30% of NADPH conversion. Enzyme activity is calculated by first subtracting TO signal to T50 and then subtracting background signal (FabI=0). Percentages of inhibition are calculated against untreated samples (Inhibitor=0) and IC50 are fitted to a classical Langmuir equilibrium model using XLFIT (IDBS).

[2] = tested on: Staphylococcus aureus strain ATCC 29213; experiment: In vivo antibacterial activity, thigh infection model in neutropenic Swiss mice; conditions: 50 mg/kg subcutaneously, 1.5 h after infection, FIG. 2
[3] = tested on: Staphylococcus aureus NRS120; experiment: MIC determination using agar dilution method; type: cell-based; conditions: MRSA / NRS 120, read-out: MIC (μg/ml) NRS120
Description: as §1
(§2) This protocol is compliant with Clinical Laboratory Standards Institute (CLSI) methodology as described in M7-A7 document of the CLSI. The compound to be tested is incorporated into Mueller-Hinton Agar medium (Fluka, Reference 70191) at one concentration per plate according to a geometric series of reason 2. Plates are inoculated with mid-log phase bacteria (inoculum=1×10^4 cfu/spot) and incubated overnight at 35° C. […] All manipulations, but compound handling (in pure DMSO), are performed under sterile conditions. The final DMSO concentration of DMSO in the plates is 2%. Vancomycin is used as reference.

[4] = tested on: Staphylococcus aureus NRS386; experiment: MIC determination using agar dilution method; type: cell-based; conditions: MRSA / NRS 386, read-out: MIC (μg/ml) NRS386
Description: as §1, §2

[5] = tested on: Staphylococcus aureus NRS192; experiment: MIC determination using agar dilution method; type: cell-based; conditions: MRSA / NRS 192, read-out: MIC (μg/ml) NRS192
Description: as §1, §2

[6] = tested on: Staphylococcus aureus NRS262; experiment: MIC determination using agar dilution method; type: cell-based; conditions: MSSA / NRS 262, read-out: MIC (μg/ml) NRS262
Description: as §1, §2

[7] = tested on: Staphylococcus aureus NRS119; experiment: MIC determination using agar dilution method; type: cell-based; conditions: MRSA / NRS 119, read-out: MIC (μg/ml) NRS119
Description: as §1, §2

[8] = tested on: Staphylococcus aureus NRS385; experiment: MIC determination using agar dilution method; type: cell-based; conditions: MRSA / NRS 385, read-out: MIC (μg/ml) NRS385
Description: as §1, §2

[9] = tested on: Staphylococcus aureus NRS269; experiment: MIC determination using agar dilution method; type: cell-based; conditions: MRSA / NRS 269, read-out: MIC (μg/ml) NRS269
Description: as §1, §2

[10] = tested on: Staphylococcus aureus NRS383; experiment: MIC determination using agar dilution method; type: cell-based; conditions: MRSA / NRS 383, read-out: MIC (μg/ml) NRS383
Description: as §1, §2

[11] = tested on: Staphylococcus aureus NRS484; experiment: MIC determination using agar dilution method; type: cell-based; conditions: MRSA / NRS 484, read-out: MIC (μg/ml) NRS484
Description: as §1, §2

[12] = tested on: Staphylococcus aureus NRS128; experiment: MIC determination using agar dilution method; type: cell-based; conditions: MSSA / NRS 128, read-out: MIC (μg/ml) NRS128
Description: as §1, §2

[13] = tested on: Staphylococcus aureus NRS123; experiment: MIC determination using agar dilution method; type: cell-based; conditions: MRSA / NRS 123, read-out: MIC (μg/ml) NRS123
Description: as §1, §2

[14] = tested on: Staphylococcus aureus NRS121; experiment: MIC determination using agar dilution method; type: cell-based; conditions: MRSA / NRS 121, read-out: MIC (μg/ml) NRS121
Description: as §1, §2

[15] = tested on: Staphylococcus aureus NRS382; experiment: MIC determination using agar dilution method; type: cell-based; conditions: MRSA / NRS 382, read-out: MIC (μg/ml) NRS382
Description: as §1, §2

[16] = tested on: Staphylococcus aureus NRS130; experiment: MIC determination using agar dilution method; type: cell-based; conditions: MSSA / NRS 130, read-out: MIC (μg/ml) NRS130
Description: as §1, §2

[17] = tested on: Staphylococcus aureus NRS22; experiment: MIC determination using agar dilution method; type: cell-based; conditions: MRSA / NRS 22, read-out: MIC (μg/ml) NRS22
Description: as §1, §2

[18] = tested on: Staphylococcus aureus NRS384; experiment: MIC determination using agar dilution method; type: cell-based; conditions: MRSA / NRS 384, read-out: MIC (μg/ml) NRS384
Description: as §1, §2

[19] = tested on: Staphylococcus aureus NRS482; experiment: MIC determination using agar dilution method; type: cell-based; conditions: MRSA / NRS 482, read-out: MIC (μg/ml) NRS482
Description: as §1, §2

[20] = tested on: Staphylococcus aureus NRS483; experiment: MIC determination using agar dilution method; type: cell-based; conditions: MRSA / NRS 483, read-out: MIC (μg/ml) NRS483
Description: as §1, §2

[21] = tested on: Staphylococcus aureus NRS127; experiment: MIC determination using agar dilution method; type: cell-based; conditions: MRSA / NRS 127, read-out: MIC (μg/ml) NRS127
Description: as §1, §2

[22] = tested on: Staphylococcus aureus NRS100; experiment: MIC determination using agar dilution method; type: cell-based; conditions: MRSA / NRS 100, read-out: MIC (μg/ml) NRS100
Description: as §1, §2

E. coli FabI = E. coli FabI (Escherichia coli (strain K12), UniProt P0AEK4); conditions: literature (Ward et al.); cited from earlier work
E. coli FabI, sequence (P0AEK4 whole entry): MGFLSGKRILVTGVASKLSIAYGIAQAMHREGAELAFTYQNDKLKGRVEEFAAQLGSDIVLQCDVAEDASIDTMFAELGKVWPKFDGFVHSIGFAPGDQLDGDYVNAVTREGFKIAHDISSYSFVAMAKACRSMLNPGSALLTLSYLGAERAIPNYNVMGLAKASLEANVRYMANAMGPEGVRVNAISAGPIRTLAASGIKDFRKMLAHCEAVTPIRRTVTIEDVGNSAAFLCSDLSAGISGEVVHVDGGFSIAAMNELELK

| Compound | MIC (S. aureus CIP 54.146) | pIC50 [1] | MIC [3] | MIC [4] | MIC [5] | MIC [6] | MIC [7] | MIC [8] | MIC [9] | MIC [10] | MIC [11] | MIC [12] | MIC [13] | MIC [14] | MIC [15] | MIC [16] | MIC [17] | MIC [18] | MIC [19] | MIC [20] | further results |
| --- | --- | --- | --- | --- | --- | --- | --- | --- | --- | --- | --- | --- | --- | --- | --- | --- | --- | --- | --- | --- | --- |
| CCCC1CCN(C(=O)/C=C/c2cnc3c(c2)CCC(=O)N3)CC1 [Example 8, 6-[(1E)-3-Oxo-3-(4-propylpiperidin-1-yl)prop-1-en-1-yl]-3,4-dihydro-1,8-naphthyridin-2(1H)-one] | 4 µg/mL (≈ 12.2 µM) | 7.39 | – | – | – | – | – | – | – | – | – | – | – | – | – | – | – | – | – | – | – |
| O=C1CCc2cc(/C=C/C(=O)N3CCC(Oc4ccccc4)C3)cnc2N1 (stereo not drawn) [Example 10, 6-[(1E)-3-Oxo-3-(3-phenoxypyrrolidin-1-yl)prop-1-en-1-yl]-3,4-dihydro-1,8-naphthyridin-2(1H)-one] | 4 µg/mL (≈ 11 µM) | 6.92 | – | – | – | – | – | – | – | – | – | – | – | – | – | – | – | – | – | – | – |
| CCCCCOC1CN(C(=O)/C=C/c2cnc3c(c2)CCC(=O)N3)C1 [Example 15, 6-{(1E)-3-Oxo-3-[3-(pentyloxy)azetidin-1-yl]prop-1-en-1-yl}-3,4-dihydro-1,8-naphthyridin-2(1H)-one] | 4 µg/mL (≈ 11.6 µM) | 7.60 | 2 µg/mL (≈ 5.82 µM) | 4 µg/mL (≈ 11.6 µM) | 4 µg/mL (≈ 11.6 µM) | 4 µg/mL (≈ 11.6 µM) | 2 µg/mL (≈ 5.82 µM) | 4 µg/mL (≈ 11.6 µM) | 4 µg/mL (≈ 11.6 µM) | 4 µg/mL (≈ 11.6 µM) | 4 µg/mL (≈ 11.6 µM) | 1 µg/mL (≈ 2.91 µM) | 2 µg/mL (≈ 5.82 µM) | 2 µg/mL (≈ 5.82 µM) | 4 µg/mL (≈ 11.6 µM) | 2 µg/mL (≈ 5.82 µM) | 4 µg/mL (≈ 11.6 µM) | 4 µg/mL (≈ 11.6 µM) | 4 µg/mL (≈ 11.6 µM) | 4 µg/mL (≈ 11.6 µM) | in vivo antibacterial activity (bacterial burden in the thigh of infected mice) [2]: able to protect mice against thigh dissemination; MIC [21]: 2 µg/mL (≈ 5.82 µM); MIC [22]: 1 µg/mL (≈ 2.91 µM) |
| Oc1cc(Cl)ccc1Oc1ccc(Cl)cc1Cl [Triclosan] | – | – | – | – | – | – | – | – | – | – | – | – | – | – | – | – | – | – | – | – | inhibition of E. coli FabI (E. coli FabI): reversible, tight-binding inhibitor |
| CN[C@H](CC(C)C)C(=O)N[C@H]1C(=O)N[C@@H](CC(N)=O)C(=O)N[C@H]2C(=O)N[C@H]3C(=O)N[C@H](C(=O)N[C@H](C(=O)O)c4cc(O)cc(O)c4-c4cc3ccc4O)[C@H](O)c3ccc(c(Cl)c3)Oc3cc2cc(c3O[C@@H]2O[C@H](CO)[C@@H](O)[C@H](O)[C@H]2O[C@H]2C[C@](C)(N)[C@H](O)[C@H](C)O2)Oc2ccc(cc2Cl)[C@H]1O [Vancomycin, reference compound] | – | – | 1 µg/mL (≈ 0.69 µM) | 1 µg/mL (≈ 0.69 µM) | 1 µg/mL (≈ 0.69 µM) | 1 µg/mL (≈ 0.69 µM) | 1 µg/mL (≈ 0.69 µM) | 1 µg/mL (≈ 0.69 µM) | 2 µg/mL (≈ 1.38 µM) | 0.5 µg/mL (≈ 0.345 µM) | 1 µg/mL (≈ 0.69 µM) | 1 µg/mL (≈ 0.69 µM) | 1 µg/mL (≈ 0.69 µM) | 1 µg/mL (≈ 0.69 µM) | 1 µg/mL (≈ 0.69 µM) | 1 µg/mL (≈ 0.69 µM) | 4 µg/mL (≈ 2.76 µM) | 1 µg/mL (≈ 0.69 µM) | 1 µg/mL (≈ 0.69 µM) | 1 µg/mL (≈ 0.69 µM) | MIC [21]: 1 µg/mL (≈ 0.69 µM); MIC [22]: 1 µg/mL (≈ 0.69 µM) |
